Like-named read-outs stand apart in the source and are kept apart here.
What was measured:
[1] = Helical structure by circular dichroism spectroscopy; type: physicochemical; conditions: 222 nm
Protocol: The mean residue molar ellipticities of peptides were determined by circular dichroism (CD) spectroscopy, using a Jasco J-810 spectropolarimeter (Easton, Md.) at 5° C. under benign (non-denaturing) conditions (50 mM NaH2PO4/Na2HPO4/100 mM KCl, pH 7.0), hereafter referred to as benign buffer, as well as in the presence of an α-helix inducing solvent, 2,2,2-trifluoroethanol, TFE, (50 mM NaH2PO4/Na2HPO4/[…], pH 7.0 buffer/50% TFE). A 10-fold dilution of an approximately […] stock solution of the peptide analogs was loaded into a 0.1 cm quartz cell and its ellipticity scanned from 195 to 250 nm. The values of molar ellipticities of the peptide analogs at a wavelength of 222 nm were used to estimate the relative α-helicity of the peptides.

[2] = tested on: Rhizopus oryzae (AZN 8892)
[3] = tested on: Mycobacterium tuberculosis strain H37Rv

**Q.** Which results are given for `CC[C@@H](C)[C@@H](NC(=O)[C@@H](C)NC(=O)[C@@H](CCCCN)NC(=O)[C@@H](CC(C)C)NC(=O)[C@@H](C)NC(=O)[C@H](NC(=O)[C@@H](Cc1c[nH]cn1)NC(=O)[C@@H](CC(C)C)NC(=O)[C@H](NC(=O)[C@H](NC(=O)[C@@H](CCCCN)NC(=O)[C@@H](CCCCN)NC(=O)[C@@H](C)NC(=O)[C@@H](CO)NC(=O)[C@@H](CCCCN)NC(=O)[C@@H](Cc1ccccc1)NC(=O)[C@H](NC(=O)[C@@H](CCCCN)NC(=O)[C@@H](CC(C)C)NC(=O)[C@@H](Cc1ccccc1)NC(=O)[C@@H](CO)NC(=O)[C@@H](CCCCN)NC(=O)[C@@H](Cc1c[nH]c2ccccc12)NC(=O)[C@@H](CCCCN)NC(C)=O)[C@H](C)O)[C@H](C)O)C(C)C)[C@H](C)O)C(=O)N[C@H](CO)C(=O)N[C@H](CO)C(N)=O` [D1]?
**A.** GM (geometric mean of the MIC50 values), Zygomycota fungi (Zygomycota fungi; four Zygomycota strains): 9.1 µg/mL; Fold improvement in antifungal activity (geometric mean data) compared to that of D4, Zygomycota fungi (Zygomycota fungi; relative to D4): 5.5 fold; 50% TFE [θ]222 (mean residue molar ellipticity) ([1]; benign buffer containing 50% trifluoroethanol): 34,100 deg cm^2/dmol; Benign [θ]222 (mean residue molar ellipticity) ([1]; benign conditions (100 mM KCl, 50 mM NaH2PO4/Na2HPO4, pH 7.0)): 1,150 deg cm^2/dmol; R. oryzae MIC50 ([2]; inhibits 50% of fungal growth): 18.8 µg/mL; R. oryzae MIC90 ([2]; inhibits 90% of fungal growth): 25.0 µg/mL; Anti-tuberculosis activity MIC [3]: 70.7 ± 14.8 µg/mL; Anti-tuberculosis activity to H37Rv strain Fold (compared to D4) [3]: 2.3 fold; Anti-tuberculosis activity MIC ([3]; H37Rv): 23.6 ± 5.0 µM; Anti-tuberculosis activity to H37Rv strain MIC ([3]; H37Rv): 23.6 µM; Anti-tuberculosis activity to H37Rv strain MIC ([3]; further experiments, […]): 70.7 µg/mL

From US20100099614A1, “Antimicrobial Peptides and Methods of Use” (priority 2008, published 2010)
